Data as given in US20090156545A1, “Substituted Phosphate Esters of Nucleoside Phosphonates” (priority 2005, published 2009).
Where two headings read alike, the source gives them in different places.

Legend:
Assay type in all cases: cell-based
HSV-1 [1] = assay: HSV-1 DNA reduction assay in MRC-5 cells
MCMV = MCMV plaque reduction assay in HFF cells; conditions: read-out: MCMV, 50% effective concentration, EC50
Cowpox Brighton = assay: organism not typed; conditions: read-out: Cowpox, 50% effective concentration, EC50
HCMV AD169 = HCMV AD169 plaque reduction assay in HFF cells
Vaccinia WR = assay: microbe, parasite or virus in culture; conditions: read-out: Vaccinia, 50% effective concentration, EC50
HIV-1Lai = HIV-1Lai p24 reduction assay in MT-2 cells
HSV-2 = HSV-2 plaque reduction assay
HSV-1 [2] = assay: HSV-1 plaque reduction assay
[3] = read-out: HSV-1, 50% effective concentration, EC50
[4] = read-out: HCMV, 50% effective concentration, EC50

Molecule | EC50 (HSV-1 [1]; [3]) | EC50 (MCMV) | EC50 (Cowpox Brighton) | EC50 (HCMV AD169; [4]) | EC50 (Vaccinia WR) | further results
CCCCCCCCCCCCCCCCCCOCCOP(=O)(O)OP(=O)(O)CO[C@H](CO)Cn1ccc(N)nc1=O [ODE-phospho-HPMPC] | 0.02 nM | 30 nM | 540 nM | 4 nM | 320 nM | –
Nc1ncnc2c1ncn2CCOCP(=O)(O)O [ADV, phosphonomethoxyethyadenine, reference compound] | – | – | – | – | – | EC50 (HIV-1Lai; Human immunodeficiency virus 1, MT2, read-out: HIV-1, 50% effective concentration, EC50): 1300 nM
(2-(6amino-9H-purin-9-yl)ethoxy)methylphosphonic(3-hexadecyloxy)propylphosphonic)anhydride [HDP-phospho-ADV] | – | – | – | – | – | EC50 (HIV-1Lai; read-out: HIV-1, 50% effective concentration, EC50): 9 nM
(1-(4-aminooxopyrimidin-1(2H)-yl)-3-hydroxypropan-2-yloxy)methylphosphonic(3-hexadecyloxy)propylphosphoric) anhydride [HDP-phospho-HPMPC] | 60 nM | 350 nM | 3900 nM | 100 nM | 2800 nM | EC50 (HSV-2; read-out: HSV-2, 50% effective concentration, EC50): 300 nM; EC50 (HSV-1 [2]; [3]): 130 nM
Nc1ccn(C[C@@H](CO)OCP(=O)(O)O)c(=O)n1 [HPMPC, (S)-9-[3-hydroxy-2-(phosphonomethoxy)-propyl]cytosine, reference compound] | – | 40 nM | – | – | – | EC50 (HSV-1 [1]; Human alphaherpesvirus 1, MRC5, read-out: HSV-1, 50% effective concentration, EC50): 3300 nM; EC50 (HSV-2; Human alphaherpesvirus 2, read-out: HSV-2, 50% effective concentration, EC50): 10500 nM; EC50 (Cowpox Brighton; HFF): 42000 nM; EC50 (HCMV AD169; Human betaherpesvirus 5, read-out: HCMV, 50% effective concentration, EC50): 1200 nM; EC50 (Vaccinia WR; Orthopoxvirus vaccinia, HFF): 31000 nM; EC50 (HSV-1 [2]; Human alphaherpesvirus 1, read-out: HSV-1, 50% effective concentration, EC50): 15000 nM
